From patent publication US12281122B1, “PI3K inhibitors” (Cogent Biosciences, Inc., priority 2023, dated 2025)
pIC50: −log10 of the molar value.

Tests used:
[1] = tested on: T47D (PI3Kα-H1047R) cell line; assay: HTRF phospho-AKT(S473) cell assay in T47D cells; type: cell-based, human
Method in brief: (§1)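 T47D (PI3Kα-H1047R; RPMI, 10% FBS, insulin) and SKBR3 (wild-type PI3Kα; McCoy's 5A, 10% FBS) cells treated 2 h at 37 °C with 12-point 1:3 dilutions, top 5 μM and 10 μM respectively, ≤0.5% DMSO. SKBR3 stimulated with 70 ng/ml PDGF-BB for the last 15 min; lysate pAKT(S473) by HTRF, IC50 from curves.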

[2] = tested on: SKBR3 (PI3Kα-Wild Type) cell line; assay: HTRF phospho-AKT(S473) cell assay in SKBR3 cells; type: cell-based, human
Method in brief: as §1

[3] = Homo sapiens; T47D (PI3Kα-H1047R) cells, HTRF phospho-AKT(S473), 2 hours compound incubation
[4] = Homo sapiens, SK-BR-3; SKBR3 (PI3Kα-Wild Type) cells, HTRF phospho-AKT(S473), 2 hours compound incubation, PDGF-BB stimulated
[5] = Homo sapiens; HTRF phospho-AKT(S473), T47D (PI3Kα-H1047R) cells, 2 hours compound incubation
[6] = Homo sapiens, SK-BR-3; HTRF phospho-AKT(S473), SKBR3 (PI3Kα-Wild Type) cells, 2 hours compound incubation, PDGF-BB stimulated

Question: `Cc1cc([C@@H](C)Nc2ccc(Cl)nc2C(=O)NS(C)(=O)=O)c2nc(C3CCN(c4ccc(C#N)cn4)CC3)n(C)c(=O)c2c1` [Compound 186, (R)-6-chloro-3-((1-(2-(1-(5-cyanopyridin-2-yl)piperidin-4-yl)-3,6-dimethyl-4-oxo-3,4-dihydroquinazolin-8-yl)ethyl)amino)-N-(methylsulfonyl) picolinamide] was tested. Which pIC50 [1, 3] did it give?
Answer: > 6.60

Question: What about the pIC50 [2, 4] of the same compound?
Answer: 5.30 to 6.00

Question: With `Cc1cc([C@@H](C)Nc2ccc(Cl)nc2C(=O)NS(C)(=O)=O)c2nc(N3C[C@@H]4CC(n5cc(C)cn5)C[C@H]4C3)n(C)c(=O)c2c1` (single isomer, unassigned) [Compound 367, 6-chloro-3-(((R)-1-(3,6-dimethyl-2-((3aR*,6aR*)-5-(4-methyl-1H-pyrazol-1-yl)hexahydrocyclopenta [c]pyrrol-2(1H)-yl)-4-oxo-3,4-dihydroquinazolin-8-yl)ethyl)amino)-N-(methylsulfonyl) picolinamide] as the compound, how does the pIC50 [1, 3] read?
Answer: > 6.60

Question: What about the pIC50 [2, 4] of the same compound?
Answer: ≤ 5.30

Question: What does the source list for `Cc1cc([C@@H](C)Nc2ccc(Cl)nc2C(=O)NS(C)(=O)=O)c2nc(N3CCN(c4ccc(C#N)cc4)CC3)n(C)c(=O)c2c1` [Compound 190, (R)-6-chloro-3-((1-(2-(4-(4-cyanophenyl)piperazin-1-yl)-3,6-dimethyl-4-oxo-3,4-dihydroquinazolin-8-yl)ethyl)amino)-N-(methylsulfonyl) picolinamide]?
Answer: pIC50 [1, 3]: > 6.60; pIC50 [2, 4]: 5.30 to 6.00

Question: `Cc1cc([C@@H](C)Nc2ccc(Cl)nc2C(=O)NS(C)(=O)=O)c2nc(-c3ccc(N4CC5CCC(C4)C5O)nc3)n(C)c(=O)c2c1` (stereo partly drawn) [Compound 305, 6-chloro-3-(((1R)-1-(2-(6-(8-hydroxy-3-azabicyclo[3.2.1]octan-3-yl)pyridin-3-yl)-3,6-dimethyl-4-oxo-3,4-dihydroquinazolin-8-yl)ethyl)amino)-N-(methylsulfonyl) picolinamide] was tested. Which pIC50 [1, 3] did it give?
Answer: > 6.60

Question: And the pIC50 [2, 4]?
Answer: ≤ 5.30

Question: Which results are given for `Cc1cc([C@@H](C)Nc2ccc(Cl)nc2C(=O)NS(C)(=O)=O)c2nc(N3CCC(c4nn(C)cc4F)CC3)n(C3CC3)c(=O)c2c1` [Compound 410, (R)-6-chloro-3-((1-(3-cyclopropyl-2-(4-(4-fluoro-1-methyl-1H-pyrazol-3-yl)piperidin-1-yl)-6-methyl-4-oxo-3,4-dihydroquinazolin-8-yl)ethyl)amino)-N-(methylsulfonyl) picolinamide]?
Answer: pIC50 [1, 3]: 6.30 to 6.60; pIC50 [2, 4]: ≤ 5.30

Question: Which results are given for `Cc1cc([C@@H](C)Nc2ccc(Cl)nc2C(=O)NS(C)(=O)=O)c2nc(N3CCC[C@H](c4cnccn4)C3)n(C)c(=O)c2c1` (relative stereo) [Compound 619, 6-chloro-3-(((R)-1-(3,6-dimethyl-4-oxo-2-((R*)-3-(pyrazin-2-yl)piperidin-1-yl)-3,4-dihydroquinazolin-8-yl)ethyl)amino)-N-(methylsulfonyl) picolinamide]?
Answer: pIC50 [1, 5]: > 6.60; pIC50 [2, 6]: ≤ 5.30

Question: How did the pIC50 [1, 5] turn out when `Cc1cc([C@@H](C)Nc2ccc(Cl)nc2C(=O)NS(C)(=O)=O)c2nc(N3C[C@@H]4[C@H](C3)[C@H]4c3cc(C)ncc3F)n(C)c(=O)c2c1` [Compound 495, 6-chloro-3-(((R)-1-(2-((1R,5S,6S)-6-(5-fluoro-2-methylpyridin-4-yl)-3-azabicyclo[3.1.0]hexan-3-yl)-3,6-dimethyl-4-oxo-3,4-dihydroquinazolin-8-yl)ethyl)amino)-N-(methylsulfonyl) picolinamide] was run?
Answer: 6.30 to 6.60

Question: What about the pIC50 [2, 6] of the same compound?
Answer: 5.30 to 6.00

Question: How did the pIC50 [1, 5] turn out when `Cc1cc([C@@H](C)Nc2ccc(Cl)nc2C(=O)NS(C)(=O)=O)c2nc([C@H]3[C@@H]4CN(c5cnc(C)nc5)C[C@@H]43)n(C)c(=O)c2c1` [Compound 820, 6-chloro-3-(((R)-1-(3,6-dimethyl-2-((1R,5S,6r)-3-(2-methylpyrimidin-5-yl)-3-azabicyclo[3.1.0]hexan-6-yl)-4-oxo-3,4-dihydroquinazolin-8-yl)ethyl)amino)-N-(methylsulfonyl) picolinamide] was run?
Answer: > 6.60

Question: What about the pIC50 [2, 6] of the same compound?
Answer: 5.30 to 6.00

Question: How did the pIC50 [1, 5] turn out when `Cc1cc([C@@H](C)Nc2ccc(Cl)nc2C(=O)NS(C)(=O)=O)c2nc(-c3ccc(C4(C#N)CC4)cc3)n(C)c(=O)c2c1` [Compound 773, (R)-6-chloro-3-((1-(2-(4-(1-cyanocyclopropyl)phenyl)-3,6-dimethyl-4-oxo-3,4-dihydroquinazolin-8-yl)ethyl)amino)-N-(methylsulfonyl) picolinamide] was run?
Answer: > 6.60

Question: And the pIC50 [2, 6]?
Answer: 5.30 to 6.00

Question: With `Cc1cc([C@@H](C)Nc2ccc(Cl)nc2C(=O)NS(C)(=O)=O)c2nc(N3C[C@@H]4[C@H](C3)[C@H]4c3cc4cccnn4n3)n(C)c(=O)c2c1` [Compound 620, 6-chloro-3-(((R)-1-(3,6-dimethyl-4-oxo-2-((1R,5S,6R)-6-(pyrazolo[1,5-b]pyridazin-2-yl)-3-azabicyclo[3.1.0]hexan-3-yl)-3,4-dihydroquinazolin-8-yl)ethyl)amino)-N-(methylsulfonyl) picolinamide] as the compound, how does the pIC50 [1, 5] read?
Answer: > 6.60

Question: And the pIC50 [2, 6]?
Answer: 5.30 to 6.00

Question: `CCS(=O)(=O)NC(=O)c1nc(Cl)ccc1N[C@H](C)c1cc(C)cc2c(=O)n(C)c(N3Cc4ccc(F)cc4C3)nc12` [Compound 110, (R)-6-chloro-N-(ethylsulfonyl)-3-((1-(2-(5-fluoroisoindolin-2-yl)-3,6-dimethyl-4-oxo-3,4-dihydroquinazolin-8-yl)ethyl)amino) picolinamide] was tested. Which pIC50 [1, 3] did it give?
Answer: 6.30 to 6.60

Question: What about the pIC50 [2, 4] of the same compound?
Answer: 5.30 to 6.00

Question: `Cc1cnc(N2C[C@@H]3[C@H](C2)[C@H]3c2nc3c([C@@H](C)Nc4ccc(Cl)nc4C(=O)NS(C)(=O)=O)cc(C)cc3c(=O)n2C)nc1` [Compound 810, 6-chloro-3-(((R)-1-(3,6-dimethyl-2-((1R,5S,6r)-3-(5-methylpyrimidin-2-yl)-3-azabicyclo[3.1.0]hexan-6-yl)-4-oxo-3,4-dihydroquinazolin-8-yl)ethyl)amino)-N-(methylsulfonyl) picolinamide] was tested. Which pIC50 [1, 5] did it give?
Answer: 6.30 to 6.60

Question: And the pIC50 [2, 6]?
Answer: ≤ 5.30

Question: What does the source list for `Cc1cc([C@@H](C)Nc2ccc(Cl)nc2C(=O)NS(C)(=O)=O)c2nc(-c3ccc4oc(C)nc4c3)n(C)c(=O)c2c1` [Compound 821, (R)-6-chloro-3-((1-(3,6-dimethyl-2-(2-methylbenzo[d]oxazol-5-yl)-4-oxo-3,4-dihydroquinazolin-8-yl)ethyl)amino)-N-(methylsulfonyl) picolinamide]?
Answer: pIC50 [1, 5]: 6.30 to 6.60; pIC50 [2, 6]: ≤ 5.30

Question: With `Cc1cc([C@@H](C)Nc2ccc(Cl)nc2C(=O)NS(C)(=O)=O)c2nc(N3CCC(c4ncc(Cl)cn4)CC3)n(C)c(=O)c2c1` [Compound 499, (R)-6-chloro-3-((1-(2-(4-(5-chloropyrimidin-2-yl)piperidin-1-yl)-3,6-dimethyl-4-oxo-3,4-dihydroquinazolin-8-yl)ethyl)amino)-N-(methylsulfonyl) picolinamide] as the compound, how does the pIC50 [1, 5] read?
Answer: 6.30 to 6.60

Question: What about the pIC50 [2, 6] of the same compound?
Answer: ≤ 5.30

Question: What does the source list for `COc1ccc(C2CCN(c3nc4c([C@@H](C)Nc5ccc(Cl)nc5C(=O)NS(C)(=O)=O)cc(C)cc4c(=O)n3C)CC2)cn1` [Compound 700, (R)-6-chloro-3-((1-(2-(4-(6-methoxypyridin-3-yl)piperidin-1-yl)-3,6-dimethyl-4-oxo-3,4-dihydroquinazolin-8-yl)ethyl)amino)-N-(methylsulfonyl) picolinamide]?
Answer: pIC50 [1, 5]: 6.30 to 6.60; pIC50 [2, 6]: ≤ 5.30

Question: How did the pIC50 [1, 5] turn out when `Cc1cc([C@@H](C)Nc2ccc(Cl)nc2C(=O)NS(=O)(=O)c2ccc(N(C)C)nc2)c2nc(N3Cc4ccc(F)cc4C3)n(C)c(=O)c2c1` [Compound 757, (R)-6-chloro-N-((6-(dimethylamino)pyridin-3-yl)sulfonyl)-3-((1-(2-(5-fluoroisoindolin-2-yl)-3,6-dimethyl-4-oxo-3,4-dihydroquinazolin-8-yl)ethyl)amino) picolinamide] was run?
Answer: 6.30 to 6.60

Question: What about the pIC50 [2, 6] of the same compound?
Answer: ≤ 5.30

Question: `C[C@@H](Nc1ccc(Cl)nc1C(=O)NS(C)(=O)=O)c1cc(C2CC2)cc2c(=O)n(C)c(N3C[C@@H]4[C@H](C3)[C@H]4c3ccn(C)n3)nc12` [Compound 382, 6-chloro-3-(((R)-1-(6-cyclopropyl-3-methyl-2-((1R,5S,6R)-6-(1-methyl-1H-pyrazol-3-yl)-3-azabicyclo[3.1.0]hexan-3-yl)-4-oxo-3,4-dihydroquinazolin-8-yl)ethyl)amino)-N-(methylsulfonyl) picolinamide] was tested. Which pIC50 [1, 3] did it give?
Answer: 6.30 to 6.60

Question: And the pIC50 [2, 4]?
Answer: 5.30 to 6.00

Question: `Cc1cc([C@@H](C)Nc2ccc(Cl)nc2C(=O)NS(C)(=O)=O)c2nc(N3Cc4cn([C@@H](C)C(F)(F)F)nc4C3)n(C)c(=O)c2c1` (relative stereo) [Compound 222, 6-chloro-3-(((R)-1-(3,6-dimethyl-4-oxo-2-(2-((R*)-1,1,1-trifluoropropan-2-yl)-2,6-dihydropyrrolo[3,4-c]pyrazol-5(4H)-yl)-3,4-dihydroquinazolin-8-yl)ethyl)amino)-N-(methylsulfonyl) picolinamide] was tested. Which pIC50 [1, 3] did it give?
Answer: > 6.60

Question: And the pIC50 [2, 4]?
Answer: 5.30 to 6.00

Question: How did the pIC50 [1, 5] turn out when `Cc1cc([C@@H](C)Nc2ccc(Cl)nc2C(=O)NS(C)(=O)=O)c2nc(N3C[C@@H]4[C@H](C3)[C@H]4c3nnc(C)n3C(F)F)n(C)c(=O)c2c1` [Compound 644, 6-chloro-3-(((R)-1-(2-((1R,5S,6R)-6-(4-(difluoromethyl)-5-methyl-4H-1,2,4-triazol-3-yl)-3-azabicyclo[3.1.0]hexan-3-yl)-3,6-dimethyl-4-oxo-3,4-dihydroquinazolin-8-yl)ethyl)amino)-N-(methylsulfonyl) picolinamide] was run?
Answer: 6.30 to 6.60

Question: What about the pIC50 [2, 6] of the same compound?
Answer: ≤ 5.30

Question: Which results are given for `Cc1cc([C@@H](C)Nc2ccc(Cl)nc2C(=O)NS(C)(=O)=O)c2nc(N3CCC(c4nn(C)c(C)c4F)CC3)n(C)c(=O)c2c1` [Compound 421, (R)-6-chloro-3-((1-(2-(4-(4-fluoro-1,5-dimethyl-1H-pyrazol-3-yl)piperidin-1-yl)-3,6-dimethyl-4-oxo-3,4-dihydroquinazolin-8-yl)ethyl)amino)-N-(methylsulfonyl) picolinamide]?
Answer: pIC50 [1, 3]: 6.30 to 6.60; pIC50 [2, 4]: ≤ 5.30
